Data: patent publication US9174932B2, “CaSR agonists” (AJINOMOTO CO., INC., priority 2008, dated 2015)

Columns and labels:
rat large intestine loop = experiment: Effect of a CaSR agonist on water absorption in rat large intestine loop method (PGE2-treated); format: in vivo; details: male SD (IGS) rat large intestine loop, PGE2 i.p.; compound in Tyrode solution
Description: The cecum and large intestine were taken out from the abdomen of a male SD (IGS) rat under pentobarbital anesthesia, and a large intestine loop was prepared by ligating a part 5 cm just below the cecum. Immediately after preparing the loop, PGE2 (4 μg/mL/kg, SIGMA) was intraperitoneally administered. 30 minutes later, 2 mL of Tyrode solution (NaCl 136.9 mM, KCl 2.7 mM, CaCl2.2H2O 1.8 mM, MgCl2.6H2O 1.04 mM, NaH2PO4.2H2O 0.04 mM, glucose 5.55 mM, NaHCO3 11.9 mM) was poured in the prepared loop. 1 hour later, the weight of the loop, the weight thereof when the liquid was removed from the loop, and the loop area were measured to calculate the weight per unit area of the liquid that remains in the loop.
A test compound was tested by dissolving it in Tyrode solution that was adjusted to pH 6.5 to 7.5.
The remaining liquid weight per unit area (g/cm^2) was calculated by the following formula. Remaining liquid weight per unit area (g/cm^2)=(loop weight−loop weight when the liquid was removed from the loop)/loop area
Water absorption was evaluated by calculating the inhibition ratio by the following formula. Inhibition ration (%)=100−(remaining liquid weight per unit area with a drug−basic average remaining liquid weight per unit area)/(average remaining liquid weight per unit area of vehicle−basic average remaining liquid weight per unit area)×100 […]

human CaSR = target: T1, human CaSR (Homo sapiens, UniProt P41180, E1011Q); experiment: Evaluation of CaSR agonistic activity (293E cells transfected with hCaSR, Ca2+ fluorescent indicator, FLIPR); format: cell-based; details: 293E cells expressing human CaSR; concentration giving activation rate 50%
T1 construct: expressed in transfected cells; host or cells: 293E cells (HEK293 expressing EBNA1, ATCC CRL-10852), transient transfection of hCaSR/pcDNA3.1
T1 sequence (P41180 20-1078 E1011Q): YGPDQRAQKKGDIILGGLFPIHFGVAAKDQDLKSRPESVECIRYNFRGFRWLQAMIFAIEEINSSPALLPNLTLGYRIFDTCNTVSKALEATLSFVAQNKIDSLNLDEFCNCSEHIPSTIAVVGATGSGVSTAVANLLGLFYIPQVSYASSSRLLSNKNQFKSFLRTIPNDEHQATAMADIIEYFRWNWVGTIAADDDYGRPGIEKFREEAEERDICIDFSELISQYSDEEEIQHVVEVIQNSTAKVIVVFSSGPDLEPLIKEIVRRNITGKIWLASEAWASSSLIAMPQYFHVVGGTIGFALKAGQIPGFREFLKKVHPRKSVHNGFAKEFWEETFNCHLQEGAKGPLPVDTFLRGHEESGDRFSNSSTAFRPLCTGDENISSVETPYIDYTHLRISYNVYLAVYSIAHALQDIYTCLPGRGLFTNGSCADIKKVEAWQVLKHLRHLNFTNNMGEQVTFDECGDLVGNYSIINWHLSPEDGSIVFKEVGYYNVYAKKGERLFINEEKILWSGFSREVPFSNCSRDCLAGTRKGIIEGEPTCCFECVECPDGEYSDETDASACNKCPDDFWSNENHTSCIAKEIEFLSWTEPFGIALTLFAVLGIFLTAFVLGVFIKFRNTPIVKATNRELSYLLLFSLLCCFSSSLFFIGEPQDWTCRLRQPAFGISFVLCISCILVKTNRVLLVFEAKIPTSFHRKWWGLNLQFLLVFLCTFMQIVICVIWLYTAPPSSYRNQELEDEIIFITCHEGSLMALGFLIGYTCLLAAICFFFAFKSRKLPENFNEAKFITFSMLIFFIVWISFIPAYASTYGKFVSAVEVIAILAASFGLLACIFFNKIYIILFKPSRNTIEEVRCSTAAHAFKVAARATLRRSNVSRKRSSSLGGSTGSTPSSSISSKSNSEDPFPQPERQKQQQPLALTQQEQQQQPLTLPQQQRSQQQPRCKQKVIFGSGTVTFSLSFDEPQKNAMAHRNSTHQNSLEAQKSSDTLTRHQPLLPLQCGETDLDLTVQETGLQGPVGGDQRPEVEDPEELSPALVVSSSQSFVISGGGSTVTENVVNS
Description: 293E cells (HEK293 cell expressing EBNA1, ATCC No. CRL-10852) were cultured in DMEM containing 10% fetal bovine serum (Dulbecco's modified Eagle medium containing […] Glucose, by NACALAI TESQUE, INC.), in the presence of 250 μg/mL of G418. The cells were spread on a petri dish of 10 cm diameter in 1.8×10^6 cells/15 mL. After leaving them in the CO2 incubator (5% CO2, 37° C.) for 24 hours, plasmid expressing human CaSR: hCaSR/pcDNA3.1 was transfected with a transfection reagent: Mirus TransIT 293 (by Takara Bio Inc.). After leaving it in the CO2 incubator for 24 hours, the cells were collected by DMEM containing 10% fetal bovine serum and seeded on poly-D-lysine coat 384 well plate (by Falcon) in 15,000 cells/well. After leaving them in the CO2 incubator for 24 hours, the medium was removed. Then, 50 μL/well of Ca^2+ fluorescent indicator: Calcium 4 Assay Kit (by Molecular Devices) that was dissolved in an assay buffer (146 mM NaCl, 5 mM KCl, 1 mM MgSO4, 1 mg/mL Glucose, 20 mM HEPES (pH 7.2), 1.5 mM CaCl2) was added thereto, and left at 37° C. for 1 hour and at room temperature for 30 minutes to absorb the fluorescent indicator. The 384 well plate was transferred to FLIPR (by Molecular Devices). Then, 12.5 μL/well of a compound that was dissolved in a 0.1% BSA containing assay buffer was added thereto, and change in fluorescence intensity was measured for 3 minutes. Meanwhile, Compound No. 20 was purchased from Bachem.
The difference between the maximum value and the minimum value (RFU(Max−Min)) of the fluorescence intensity before and after adding a compound was automatically calculated by FLIPR. RFU(Max−Min) when adding a compound in maximum concentration was defined as 100%; and RFU(Max−Min) when adding DMSO instead of the compound in the same concentration as that of the compound was defined as 0%.

[1] = Quantitative sensory evaluation test of kokumi-imparting activity; parameters: species or system human; details: for Intensity of kokumi After taste / Intensity of kokumi First-middle taste: score control 0, strong 3, very strong 5, n=4
Description: The kokumi-imparting effects can be confirmed by the method such as a gustatory test by a human being as mentioned in Examples of the present invention, but it is not limited to those.
On compounds wherein a calcium receptor activating action was found (sodium salts of Compound Nos. 1, 7 and 21), the intensity of kokumi-imparting activity was examined by a quantitative sensory evaluation test. The used compound was prepared by dissolving 525 mg of the compound No. 1 described in Synthetic Example 1 of Example I in 5 mL of distilled water, adjusting it to pH6.5 to 7 by adding 16.4 mL of 0.1M sodium hydroxide solution thereto, and freeze-drying it to obtain a sodium salt thereof. Further, the used compound was also prepared as follows. 500 mg of the compound No. 7 described in Synthetic Example 7 of Example I was suspended in 5 mL of distilled water. 1.61 mL of 1M sodium hydroxide and 0.8 mL of 2M hydrochloric acid were added thereto at 0° C. respectively to precipitate a solid substance. The precipitated solid substance was taken by filtration and dried under reduced pressure at 40° C. to obtain 426 mg of the compound No. 7. The obtained solid substance was suspended in 10 mL of distilled water. 1.2 mL of 1M sodium hydroxide was added thereto and freeze-dried to obtain a sodium salt thereof. The compound No. 21 was used in the form of a sodium salt of the compound No. 21 described in Synthetic Example 21 of Example I, which was prepared by the same method as mentioned above.
A quantitative sensory evaluation test was conducted as follows. 0.000001 to 0.1 g/dL of the compound(s) (a sodium salt of No. 1) was mixed as a sample to distilled water containing glutamic sodium (0.05 g/dL), inosine monophosphate (0.05 g/dL) and sodium chloride (0.5 g/dL). Then, the intensity of kokumi-imparting activity was examined at that time. As a reference, γ Glu-Cys-Gly and γ Glu-Val-Gly were used, each of which is a known kokumi-imparting component. As for a sample that becomes acidic to an additive-free control after dissolving the sample, it was used by being adjusted with sodium hydroxide to become within pH±0.2 to the additive-free control. As for sensory scoring, it was defined as a control: 0, strong: 3, and very strong: 5; and n=4. Meanwhile, “first-middle taste” means the taste combining first taste and middle taste. The kokumi-imparting activity was widely seen in the above addition concentrations, and the results of the representative concentrations are shown in Table 5.

N[C@@H](CCC(=O)Nc1cccc(S(=O)(=O)O)c1)C(=O)O [Compound No. 1, N^5-(3-sulfophenyl)-L-glutamine]
Water absorption (rat large intestine loop): promoted in a dose-dependent manner
EC50 (human CaSR): 12 nM

N[C@@H](CCC(=O)Nc1cc(Cl)cc(S(=O)(=O)O)c1O)C(=O)O [Compound No. 7, N^5-(5-chloro-2-hydroxy-3-sulfophenyl)-L-glutamine]
Water absorption (rat large intestine loop): promoted in a dose-dependent manner
EC50 (human CaSR): 1.9 nM

N[C@@H](CCC(=O)Nc1cccc(S(=O)(=O)[O-])c1)C(=O)O.[Na+] [No.1-Na salt]
Intensity of kokumi After taste ([1]; Conc. 0.00001 g/dL): 1.0
Intensity of kokumi First-middle taste ([1]; Conc. 0.00001 g/dL): 0.7
Intensity of kokumi After taste ([1]; Conc. 0.0001 g/dL): 2.0
Intensity of kokumi First-middle taste ([1]; Conc. 0.0001 g/dL): 1.8
Intensity of kokumi After taste ([1]; Conc. 0.0005 g/dL): 3.0
Intensity of kokumi First-middle taste ([1]; Conc. 0.0005 g/dL): 2.6
Comments ([1]; Conc. 0.001 g/dL): All tastes are strong, mainly
Intensity of kokumi After taste ([1]; Conc. 0.001 g/dL): 3.6
Intensity of kokumi First-middle taste ([1]; Conc. 0.001 g/dL): 3.2
Comments ([1]; Conc. 0.01 g/dL): All tastes are strong.
Intensity of kokumi After taste ([1]; Conc. 0.01 g/dL): 5.0
Intensity of kokumi First-middle taste ([1]; Conc. 0.01 g/dL): 5.0

N[C@@H](CCC(=O)Nc1cc(Cl)cc(S(=O)(=O)[O-])c1O)C(=O)O.[Na+] [No.7-Na salt]
Intensity of kokumi After taste ([1]; Conc. 0.00005 g/dL): 2.5
Intensity of kokumi First-middle taste ([1]; Conc. 0.00005 g/dL): 2.2
Comments ([1]; Conc. 0.0001 g/dL): There is about the same thickness
Intensity of kokumi After taste ([1]; Conc. 0.0001 g/dL): 3.2
Intensity of kokumi First-middle taste ([1]; Conc. 0.0001 g/dL): 2.5
Intensity of kokumi After taste ([1]; Conc. 0.0005 g/dL): 4.0
Intensity of kokumi First-middle taste ([1]; Conc. 0.0005 g/dL): 3.3

Cc1c(Cl)cc(NC(=O)CC[C@H](N)C(=O)O)cc1S(=O)(=O)[O-].[Na+] [No.21-Na salt]
Intensity of kokumi After taste ([1]; Conc. 0.0002 g/dL): 2.0
Intensity of kokumi First-middle taste ([1]; Conc. 0.0002 g/dL): 1.5
Intensity of kokumi After taste ([1]; Conc. 0.0005 g/dL): 3.1
Intensity of kokumi First-middle taste ([1]; Conc. 0.0005 g/dL): 2.6
Intensity of kokumi After taste ([1]; Conc. 0.001 g/dL): 3.7
Intensity of kokumi First-middle taste ([1]; Conc. 0.001 g/dL): 3.1

γ Glu-Cys-Gly [γGlu-Cys-Gly, reference compound]
Comments ([1]; Conc. 0.01 g/dL): Richness, thickness and continuity
Intensity of kokumi After taste ([1]; Conc. 0.01 g/dL): 3.0
Intensity of kokumi First-middle taste ([1]; Conc. 0.01 g/dL): 3.0

γ Glu-Val-Gly [γGlu-Val-Gly, reference compound]
Comments ([1]; Conc. 0.001 g/dL): Mellowness, richness and growth
Intensity of kokumi After taste ([1]; Conc. 0.001 g/dL): 3.0
Intensity of kokumi First-middle taste ([1]; Conc. 0.001 g/dL): 2.5
Comments ([1]; Conc. 0.005 g/dL): Mellowness, richness and growth
Intensity of kokumi After taste ([1]; Conc. 0.005 g/dL): 4.0
Intensity of kokumi First-middle taste ([1]; Conc. 0.005 g/dL): 3.5
